Laboratory results from PubChem BioAssay (NCI).
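All cell lines were grown in 96-well plates and treated with compound for 48 hours. GI50 marks 50% less growth. TGI denotes the concentration required for complete inhibition of growth.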

What was measured:
Experiment in all cases: NCI tumour cell line growth inhibition, 48 h
ACHN renal = tested on: ACHN renal
LOX IMVI melanoma = tested on: LOX IMVI melanoma
SF-539 CNS = tested on: SF-539 CNS
PC-3 prostate = tested on: PC-3 prostate
MALME-3M melanoma = tested on: MALME-3M melanoma
A498 renal = tested on: A498 renal
OVCAR-8 ovarian = tested on: OVCAR-8 ovarian
NCI-H522 lung = tested on: NCI-H522 lung
HS 578T breast = tested on: HS 578T breast
RXF 393 renal = tested on: RXF 393 renal
SR leukemia = tested on: SR leukemia
SF-295 CNS = tested on: SF-295 CNS
SK-MEL-5 melanoma = tested on: SK-MEL-5 melanoma
A549 NSCLC = tested on: A549 NSCLC
TK-10 renal = tested on: TK-10 renal
BT-549 breast = tested on: BT-549 breast
SK-MEL-2 melanoma = tested on: SK-MEL-2 melanoma
HT29 colon = tested on: HT29 colon
MDA-MB-435 = tested on: MDA-MB-435
T-47D breast = tested on: T-47D breast
SNB-19 CNS = tested on: SNB-19 CNS
KM12 colon = tested on: KM12 colon
K-562 leukemia = tested on: K-562 leukemia
MCF7 breast = tested on: MCF7 breast
COLO 205 colon = tested on: COLO 205 colon
M14 melanoma = tested on: M14 melanoma
UO-31 renal = tested on: UO-31 renal
NCI-H460 lung = tested on: NCI-H460 lung

Nc1nc(-c2cccc([N+](=O)[O-])c2)c(N=Nc2ccc(Br)cc2)s1
GI50 (ACHN renal): 14.2 µM | TGI (ACHN renal): 27.3 µM | GI50 (LOX IMVI melanoma): 4 µM | TGI (LOX IMVI melanoma): 26.6 µM | GI50 (SF-539 CNS): 3 µM | TGI (SF-539 CNS): 10.4 µM | GI50 (PC-3 prostate): 20.2 µM | TGI (PC-3 prostate): 86 µM | GI50 (MALME-3M melanoma): 16.3 µM | TGI (MALME-3M melanoma): 30.5 µM | GI50 (A498 renal): 16.7 µM | TGI (A498 renal): 31.7 µM | GI50 (OVCAR-8 ovarian): 10.2 µM | TGI (OVCAR-8 ovarian): 33.6 µM | GI50 (NCI-H522 lung): 10.9 µM | TGI (NCI-H522 lung): 35.8 µM | GI50 (HS 578T breast): 19.3 µM | TGI (HS 578T breast): > 100 µM | GI50 (RXF 393 renal): 12.6 µM | TGI (RXF 393 renal): 25.4 µM | GI50 (SR leukemia): 21.6 µM | TGI (SR leukemia): > 100 µM | GI50 (SF-295 CNS): 23 µM | TGI (SF-295 CNS): 49.8 µM | GI50 (SK-MEL-5 melanoma): 16.9 µM | TGI (SK-MEL-5 melanoma): 31.5 µM | GI50 (A549 NSCLC): 17 µM | TGI (A549 NSCLC): 35.1 µM | GI50 (TK-10 renal): 21.6 µM | TGI (TK-10 renal): 36.5 µM | GI50 (BT-549 breast): 15.7 µM | TGI (BT-549 breast): 40.8 µM | GI50 (SK-MEL-2 melanoma): 18.6 µM | TGI (SK-MEL-2 melanoma): 51.8 µM | GI50 (HT29 colon): 19.4 µM | TGI (HT29 colon): > 100 µM | GI50 (MDA-MB-435): 20.5 µM | TGI (MDA-MB-435): 57.2 µM | GI50 (T-47D breast): 9.84 µM | TGI (T-47D breast): 46 µM | GI50 (SNB-19 CNS): 20.3 µM | TGI (SNB-19 CNS): 50.1 µM | GI50 (KM12 colon): 16.1 µM | TGI (KM12 colon): > 100 µM | GI50 (K-562 leukemia): 10.3 µM | TGI (K-562 leukemia): > 100 µM | GI50 (MCF7 breast): 12.7 µM | TGI (MCF7 breast): > 100 µM | GI50 (COLO 205 colon): 24.6 µM | TGI (COLO 205 colon): 94 µM | GI50 (M14 melanoma): 17.3 µM | TGI (M14 melanoma): 38.8 µM | GI50 (UO-31 renal): 12.7 µM | TGI (UO-31 renal): 25.2 µM | GI50 (NCI-H460 lung): 12.8 µM | TGI (NCI-H460 lung): 44.6 µM
